Several values for one entry are separate records, joined by “and”; a condition that tells them apart may be missing. Identical values can stand only once. Toxic doses and inconclusive results are not listed. Cut-off read from the data, not from the text of the source: active = T/C of 150% or more; inactive = T/C below 125%.
Test system: L1210 leukemia ip in BDF1 mice, survival T/C
Assay: NCI In Vivo Anticancer Drug Screen. Data for tumor model L1210 Leukemia (intraperitoneal) in B6D2F1 (BDF1) mice
Details: endpoint: mean survival time, higher = longer survival
Outline: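 Each compound was tested against a transplantable tumor grown in mice. The endpoint was survival, with treated animals benchmarked against vehicle controls as a simple ratio.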

[1] = dose: 12.5 mg/kg/injection, schedule: Q04DX003 (ip), vehicle: saline
[2] = dose: 25.0 mg/kg/injection, schedule: Q01DX009 (ip), vehicle: saline
[3] = dose: 25.0 mg/kg/injection, schedule: Q04DX003 (ip), vehicle: saline
[4] = dose: 50.0 mg/kg/injection, schedule: Q01DX009 (ip), vehicle: saline
[5] = dose: 50.0 mg/kg/injection, schedule: Q04DX003 (ip), vehicle: saline
[6] = dose: 100.0 mg/kg/injection, schedule: Q04DX003 (ip), vehicle: saline
[7] = dose: 100.0 mg/kg/injection, schedule: Q01DX009 (ip), vehicle: Klucel (hydroxypropylcellulose) (HPC)
[8] = dose: 200.0 mg/kg/injection, schedule: Q01DX009 (ip), vehicle: Klucel (hydroxypropylcellulose) (HPC)
[9] = dose: 400.0 mg/kg/injection, schedule: Q01DX009 (ip), vehicle: Klucel (hydroxypropylcellulose) (HPC)
[10] = dose: 12.5 mg/kg/injection, schedule: Q04DX003 (ip), vehicle: saline with Tween-80
[11] = dose: 25.0 mg/kg/injection, schedule: Q04DX003 (ip), vehicle: saline with Tween-80
[12] = dose: 50.0 mg/kg/injection, schedule: Q04DX003 (ip), vehicle: saline with Tween-80
[13] = dose: 100.0 mg/kg/injection, schedule: Q01DX001 (ip), vehicle: saline
[14] = dose: 100.0 mg/kg/injection, schedule: Q01DX009 (ip), vehicle: saline
[15] = dose: 200.0 mg/kg/injection, schedule: Q01DX001 (ip), vehicle: saline
[16] = dose: 200.0 mg/kg/injection, schedule: Q01DX009 (ip), vehicle: saline
[17] = dose: 400.0 mg/kg/injection, schedule: Q01DX001 (ip), vehicle: saline
[18] = dose: 100.0 mg/kg/injection, schedule: Q01DX009 (ip), vehicle: saline with Tween-80
[19] = dose: 200.0 mg/kg/injection, schedule: Q01DX009 (ip), vehicle: saline with Tween-80
[20] = dose: 100.0 mg/kg/injection, schedule: Q04DX003 (ip), vehicle: saline with Tween-80

Measured: T/C

CC(C)C([NH-])=O.CC(C)C([NH-])=O.[Cl][Pt+2][Cl]
inactive: [1] 116 % of control | [2] 102 % of control | [3] 118 % of control | [4] 89 % of control | [5] 112 % of control | [6] 108 % of control and 118 % of control

CC(=O)N(C(C)=O)C1=C(c2ccccc2)C(=O)c2ccccc21
inactive: [7] 98 % of control | dose: 100.0 mg/kg/injection, schedule: Q04DX003 (ip), vehicle: Klucel (hydroxypropylcellulose) (HPC) 96 % of control | [8] 97 % of control | dose: 200.0 mg/kg/injection, schedule: Q04DX003 (ip), vehicle: Klucel (hydroxypropylcellulose) (HPC) 105 % of control | [9] 94 % of control | dose: 400.0 mg/kg/injection, schedule: Q04DX003 (ip), vehicle: Klucel (hydroxypropylcellulose) (HPC) 107 % of control

COC(=O)C1C2CC(O)C(C2)C1C(=O)OC (centres undefined)
inactive: [10] 95 % of control | [11] 103 % of control | [12] 94 % of control

COc1ccc2c(c1)N(CCC1CCCCN1C)c1ccccc1S2 (centres undefined)
inactive: dose: 3.12 mg/kg/injection, schedule: Q01DX009 (ip), vehicle: saline 108 % of control and 121 % of control | dose: 6.25 mg/kg/injection, schedule: Q01DX009 (ip), vehicle: saline 105 % of control and 118 % of control | dose: 6.25 mg/kg/injection, schedule: Q04DX003 (ip), vehicle: saline 107 % of control | dose: 12.5 mg/kg/injection, schedule: Q01DX009 (ip), vehicle: saline 111 % of control | [1] 106 % of control | [2] 117 % of control | [3] 117 % of control and 122 % of control | [5] 114 % of control and 117 % of control

O=C(O)CCC(=O)O.[Ag]
inactive: [10] 93 % of control | dose: 25.0 mg/kg/injection, schedule: Q01DX009 (ip), vehicle: acetone 86 % of control | [11] 95 % of control

CC(C)=CCC/C(C)=C/CN1C(=O)CN(C)C1=O
inactive: [4] 98 % of control | [13] 100 % of control | [14] 101 % of control | [15] 103 % of control | [16] 98 % of control | [17] 100 % of control

O=C(CCCl)[O][Pb]([O]C(=O)CCCl)([c]1ccccc1)[c]1ccccc1
inactive: [6] 108 % of control

CCOC(=O)/C(C)=C\C=C(\C)CCC=C(C)C
inactive: [7] 104 % of control | [8] 102 % of control | [9] 104 % of control

C=CCSc1ccccc1C(=O)O
inactive: dose: 50.0 mg/kg/injection, schedule: Q01DX001 (ip), vehicle: carboxymethylcellulose (CMC) 122 % of control | dose: 100.0 mg/kg/injection, schedule: Q01DX001 (ip), vehicle: carboxymethylcellulose (CMC) 95 % of control | dose: 200.0 mg/kg/injection, schedule: Q01DX001 (ip), vehicle: carboxymethylcellulose (CMC) 106 % of control | dose: 400.0 mg/kg/injection, schedule: Q01DX001 (ip), vehicle: carboxymethylcellulose (CMC) 106 % of control

Cc1cccc(C)c1N(COCC(C)C)C(=O)CCl
inactive: [18] 100 % of control | [19] 100 % of control

NC(CS)C(=O)O (centres undefined)
inactive: [13] 105 % of control | [15] 92 % of control | dose: 250.0 mg/kg/injection, schedule: Q01DX Z (ip), vehicle: other 91 % of control | dose: 250.0 mg/kg/injection, schedule: Q01DX Z (ip), vehicle: saline 102 % of control | [17] 97 % of control | dose: 500.0 mg/kg/injection, schedule: Q01DX Z (ip), vehicle: saline 94 % of control | dose: 1000.0 mg/kg/injection, schedule: Q01DX Z (ip), vehicle: saline 112 % of control

Cc1ccc(NC(=O)CCC(=O)O)cc1Cl
inactive: [7] 102 % of control | [8] 92 % of control | [9] 89 % of control

CCN(CC)Cc1c(O)ccc2c3c(c(=O)oc12)CCCC3
inactive: dose: 10.0 mg/kg/injection, schedule: Q01DX001 (ip), vehicle: carboxymethylcellulose (CMC) 103 % of control | dose: 20.0 mg/kg/injection, schedule: Q01DX001 (ip), vehicle: carboxymethylcellulose (CMC) 97 % of control | dose: 40.0 mg/kg/injection, schedule: Q01DX001 (ip), vehicle: carboxymethylcellulose (CMC) 94 % of control | dose: 80.0 mg/kg/injection, schedule: Q01DX001 (ip), vehicle: carboxymethylcellulose (CMC) 96 % of control

CN(C)c1ncnc2nsnc12
inactive: [20] 100 % of control

CC1CCN1Cc1ccccc1 (centres undefined)
inactive: dose: 12.5 mg/kg/injection, schedule: Q04DX003 (ip), vehicle: acetone 98 % of control | dose: 25.0 mg/kg/injection, schedule: Q04DX003 (ip), vehicle: acetone 104 % of control | dose: 50.0 mg/kg/injection, schedule: Q04DX003 (ip), vehicle: acetone 104 % of control | dose: 75.0 mg/kg/injection, schedule: Q01DX009 (ip), vehicle: saline 94 % of control

COC(CN(C)C(=O)NC1CCCCC1)OC
inactive: [18] 102 % of control | [19] 100 % of control

Cc1cccc(C)c1NC(=O)Oc1cccc2ccccc12
inactive: [14] 97 % of control | [6] 93 % of control | [16] 95 % of control | dose: 200.0 mg/kg/injection, schedule: Q04DX003 (ip), vehicle: saline 98 % of control | dose: 400.0 mg/kg/injection, schedule: Q01DX009 (ip), vehicle: saline 103 % of control | dose: 400.0 mg/kg/injection, schedule: Q04DX003 (ip), vehicle: saline 100 % of control

BrCC(Br)=C(Br)Br
inactive: dose: 6.0 mg/kg/injection, schedule: Q04DX003 (ip), vehicle: Klucel (hydroxypropylcellulose) (HPC) 105 % of control | dose: 12.0 mg/kg/injection, schedule: Q01DX001 (ip), vehicle: Klucel (hydroxypropylcellulose) (HPC) 88 % of control | dose: 12.0 mg/kg/injection, schedule: Q04DX003 (ip), vehicle: Klucel (hydroxypropylcellulose) (HPC) 91 % of control | dose: 25.0 mg/kg/injection, schedule: Q01DX001 (ip), vehicle: Klucel (hydroxypropylcellulose) (HPC) 97 % of control and 101 % of control | dose: 25.0 mg/kg/injection, schedule: Q04DX003 (ip), vehicle: Klucel (hydroxypropylcellulose) (HPC) 91 % of control | dose: 50.0 mg/kg/injection, schedule: Q01DX001 (ip), vehicle: Klucel (hydroxypropylcellulose) (HPC) 93 % of control and 90 % of control | dose: 100.0 mg/kg/injection, schedule: Q01DX001 (ip), vehicle: Klucel (hydroxypropylcellulose) (HPC) 97 % of control

CCCCP(=O)(CCCC)Oc1cccc([N+](=O)[O-])c1
inactive: [11] 97 % of control | [12] 96 % of control | [20] 95 % of control and 102 % of control

N#CC(C#N)c1c(F)c(F)c(C(F)(F)F)c(F)c1F
inactive: dose: 10.0 mg/kg/injection, schedule: Q04DX003 (ip), vehicle: Klucel (hydroxypropylcellulose) (HPC) 103 % of control | dose: 20.0 mg/kg/injection, schedule: Q01DX001 (ip), vehicle: Klucel (hydroxypropylcellulose) (HPC) 97 % of control | dose: 20.0 mg/kg/injection, schedule: Q04DX003 (ip), vehicle: Klucel (hydroxypropylcellulose) (HPC) 98 % of control | dose: 40.0 mg/kg/injection, schedule: Q01DX001 (ip), vehicle: Klucel (hydroxypropylcellulose) (HPC) 101 % of control | dose: 40.0 mg/kg/injection, schedule: Q04DX003 (ip), vehicle: Klucel (hydroxypropylcellulose) (HPC) 95 % of control
